Measurements: patent US20240140943A1, “COMPETITIVE AND NONCOMPETITIVE INHIBITORS OF THE MUSCARINIC ACETYLCHOLINE RECEPTOR M5” (Vanderbilt University, priority 2021, published 2024)
pIC50: −log10 of the molar value.

Molecular target: T1, human M5 receptors (hM5) (Homo sapiens, UniProt P08912)
T1 construct: expressed in transfected cells
T1 sequence (P08912 1-532): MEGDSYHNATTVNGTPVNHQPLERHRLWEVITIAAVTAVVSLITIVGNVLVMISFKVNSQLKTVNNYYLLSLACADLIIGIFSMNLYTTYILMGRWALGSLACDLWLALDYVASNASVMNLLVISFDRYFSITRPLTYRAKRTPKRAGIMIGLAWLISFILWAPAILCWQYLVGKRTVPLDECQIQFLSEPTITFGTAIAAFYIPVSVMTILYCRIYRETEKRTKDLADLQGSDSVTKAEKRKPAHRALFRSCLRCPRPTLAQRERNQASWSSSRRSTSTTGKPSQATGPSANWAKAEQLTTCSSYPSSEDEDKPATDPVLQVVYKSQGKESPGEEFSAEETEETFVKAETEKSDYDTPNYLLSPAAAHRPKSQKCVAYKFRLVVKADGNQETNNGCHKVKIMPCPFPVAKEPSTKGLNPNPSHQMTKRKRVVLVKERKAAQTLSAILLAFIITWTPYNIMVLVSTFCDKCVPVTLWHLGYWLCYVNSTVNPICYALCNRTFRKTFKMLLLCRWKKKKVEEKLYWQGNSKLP
Assay: Cell-based functional calcium mobilization assay of mAChR M5 activity
Settings: CHO cells stably expressing hM5; for pIC50: calcium mobilization, inhibition of EC80 acetylcholine response; for EC80 MIN: minimum response at EC80 acetylcholine addition, normalized to maximum acetylcholine response
Experimental: All functional cell-based assays were performed essentially as previously described (Mario et al., Mol. Pharm. 2009, 75(3), 577-588; Brady et al., J. Pharm. & Exp. Ther. 2008, 327, 941-953). Initial, single point (10 μM) compound characterization was performed in stable Chinese Hamster Ovary (CHO) cell lines constitutively expressing human M5 receptors. These were plated at 15,000 cells per 20 μL per well in Greiner 384-well black-walled, TC-treated, clear-bottomed plates (Fisher) in Ham's F12 medium supplemented with 10% FBS and 20 mM HEPES. Cells were incubated overnight at 37° C. under 5% CO2. The following day, medium was exchanged with assay buffer (Hank's Balanced Salt Solution supplemented with 20 mM HEPES and 2.5 mM Probenecid, pH 7.4) leaving 20 μL of assay buffer in each well. This was followed by the addition of 20 μL of 2.3 μM of Fluo-4 AM (Invitrogen) in assay buffer (final concentration 1.15 μM). The cells were then incubated 50 minutes at 37° C. under 5% CO2. The assay buffer plus dye was then exchanged with fresh assay buffer leaving a volume of 20 μL in each well. Test compounds were diluted into assay buffer to a 2× (20 μM) concentration in 0.2% dimethylsulfoxide (DMSO) in columns 3-22 with matching DMSO concentration in columns 1, 2, 23, and […]; compounds were added to the assay for a final concentration of 10 μM and a final DMSO concentration of 0.1%. Acetylcholine (Sigma-Aldrich) was prepared to provide 5× concentrations of EC20, EC80, and ECmax in the triple-addition assay, providing a signal window to view agonism, potentiation, and inhibition of the acetylcholine response as well as a means to normalize to the maximum acetylcholine response.
Either an FDSS (Hamamatsu) or Panoptic (WaveFront Biosciences) kinetic imaging plate reader was used for assay execution and measurement of calcium flux. After establishing baseline fluorescence, test compounds (20 μL) were added to the cells using the reader's integrated pipettor and allowed to equilibrate for 140 seconds before addition of the EC20 concentration of acetylcholine (10 μL) along with vehicle in selected DMSO-only wells in the outer two columns. The EC80 concentration of acetylcholine (10 μL) was added 125 seconds after the EC20 addition along with ECmax concentration in the wells receiving vehicle in the second addition. The raw fluorescence data from each well was normalized to the corresponding initial fluorescence reading (static ratio). The maximum fluorescence value following each addition was determined and the minimum value within that same timeframe was subtracted for each well then normalized to the average of the ECmax maximum-minimum response, providing a % AChmax value for each addition for each well. The single point values represent mean values determined within the EC80 addition timeframe obtained from at least three independent determinations performed in triplicate or greater (error bars represent +/−SEM) unless otherwise specified.
Further characterization of test compounds (compound potency and mAChR subtype-selectivity) was performed on the FDSS with calcium mobilization assays performed as previously described (Mario et al., 2009; Brady et al., 2008) and in a format similar to that described above using the same reagents. CHO cells stably expressing hM1, hM2/Gqi5, hM3, hM4/Gqi5, hM5, rM1, rM2/Gqi5, rM3, rM4/Gqi5, or rM5 were plated in the manner described above. A ten-point concentration range of test compound was serial diluted in assay buffer to 2× final concentration and acetylcholine was diluted in assay buffer to 5× of the EC20 and EC80 concentrations, determined empirically and 5× maximal (2 mM final concentration) stock concentrations. FDSS protocols were carried out as described above; the static ratio was calculated and the minimum response subtracted from the maximum response within the timeframe of each addition. This max-min response was then normalized to the maximum acetylcholine response. […]

Structure (SMILES)	pIC50	EC80 MIN [%]
Cc1nnc(S(=O)(=O)[C@H]2CC[C@H](c3cn4ncnc4cc3Cl)CC2)s1 [Compound 1, trans-2-((4-(7-chloro-[1,2,4]triazolo[1,5-a]pyridin-6-yl)cyclohexyl)sulfonyl)-5-methyl-1,3,4-thiadiazole]	6.73	3
Cc1nnc(S(=O)(=O)[C@H]2CC[C@H](c3cn4ncnc4cc3Cl)CC2)o1 [Compound 2, trans-2-((4-(7-chloro-[1,2,4]triazolo[1,5-a]pyridin-6-yl)cyclohexyl)sulfonyl)-5-methyl-1,3,4-oxadiazole]	6.27	3
Cc1nnc(S(=O)(=O)[C@H]2CC[C@H](c3cn4ncnc4cc3Cl)CC2)n1C [Compound 3, trans-7-chloro-6-(4-((4,5-dimethyl-4H-1,2,4-triazol-3-yl)sulfonyl)cyclohexyl)-[1,2,4]triazolo[1,5-a]pyridine]	7.48	2
Cc1nnc(S(=O)(=O)[C@H]2CC[C@@H](c3cn4ncnc4cc3C)CC2)o1 [Compound 4, cis-2-methyl-5-((4-(7-methyl-[1,2,4]triazolo[1,5-a]pyridin-6-yl)cyclohexyl)sulfonyl)-1,3,4-oxadiazole]	< 5.00	55
